Measurements: the C3SDB collision cross section collection
“And” between values parts separate entries of the source, which are not always exact repeats. Equal entries are not always repeated.

Legend:
[1] = instrument: DT, single field, calibrated with Agilent tune mix (Agilent)
[2] = instrument: DT, single field, calibrated with Agilent tune mix (Agilent); remark: listed apart in the source

## CCCCC/C=C\C/C=C\CCCCCCCCCC(=O)O[C@@H](CO)COC(=O)CCCCCCCCCCCCCCCCCCC [DG(40:2)]
[1]; [M+NH4]+
  collision cross section (N2): 277.7 Å²

## CCCCCCCC/C=C\CCCCCCCCCC(=O)O[C@H](COC(=O)CCCCCCCCCCCCC)COP(=O)(O)OC[C@H](N)C(=O)O [PS(34:1)]
[1]; [M+H]+
  collision cross section (N2): 280 Å²
[1]; [M-H]-
  collision cross section (N2): 273.1 Å²

## CCCCCCCCCCCCCCCCCCCC(=O)N[C@@H](CO)[C@H](O)CCCCCCCCCCCCCCC [Cer(38:0)]
[1]; [M+HCOO]-
  collision cross section (N2): 265.2 Å²
[1]; [M+H]+
  collision cross section (N2): 267.9 Å²

## CCCCCCCCCCCCC=CC[C@@H](O)[C@H](CO)NC(=O)CC=CCCCCCCCCCCCCCCCCCCCCCC [Cer(44:2)]
[1]; [M+H]+
  collision cross section (N2): 283.5 Å²

## CC/C=C\C/C=C\C/C=C\C/C=C\CCCCC(=O)OC[C@H](COP(=O)(O)O[C@H]1C(O)C(O)C(O)[C@@H](O)C1O)OC(=O)CCCCCCCCCCCCCCCCCC (stereo not given in full) [PI(37:4)]
[1]; [M+H]+
  collision cross section (N2): 298.9 Å²
[1]; [M+NH4]+
  collision cross section (N2): 300.2 Å²
[1]; [M+Na]+
  collision cross section (N2): 297.6 Å²

## CCCCC/C=C\C/C=C\C/C=C\CCCCCCC(=O)O[C@H](COC(=O)CCCC/C=C\C/C=C\C/C=C\CCCCC)COC(=O)CCCCCCCCC/C=C\CCCCCCCCCC [TG(60:7)]
[1]; [M+NH4]+
  collision cross section (N2): 339 Å²

## CCCCCCCCCCCCCCCC/C=C\OC[C@H](COP(=O)(O)OCCN)OC(=O)CCCCCCCCCCCCCCCCC [PE(p36:0)]
[1]; [M+H]+
  collision cross section (N2): 281.6 Å²
[1]; [M-H]-
  collision cross section (N2): 268.4 Å²

## CCCCCCCCCCCCC=CCC(=O)N[C@@H](COP(=O)([O-])OCC[N+](C)(C)C)[C@H](O)CC=CCCCCCCCCCCCC [SM(34:2)]
[1]; [M+H]+
  collision cross section (N2): 281.4 Å²

## CCCCC/C=C\C/C=C\CCCCCCCCCCCC(=O)O[C@H](COC(=O)CCCCCCCCCCCC)COP(=O)(O)O[C@H]1C(O)C(O)C(O)[C@@H](O)C1O (stereo not given in full) [PI(35:2)]
[1]; [M+NH4]+
  collision cross section (N2): 295.6 Å²
[1]; [M-H]-
  collision cross section (N2): 285.3 Å²

## CC/C=C\C/C=C\C/C=C\C/C=C\C/C=C\CCCC(=O)O[C@H](COC(=O)CCCCCCC/C=C\C/C=C\C/C=C\CC)COC(=O)CCCCCCCCC/C=C\CCCCCCCCCC [TG(60:9)]
[1]; [M+NH4]+
  collision cross section (N2): 336 Å²

## CCCCCCCCCCCCCCCCC(=O)OC[C@@H](O)COP(=O)(O)OCCN [LPE(17:0)]
[1]; [M+H]+
  collision cross section (N2): 217.1 Å²
[1]; [M-H]-
  collision cross section (N2): 210.1 Å²

## CCCCCC/C=C\CCCCCCCC(=O)OC[C@H](COP(=O)(O)O[C@H]1C(O)C(O)C(O)[C@@H](O)C1O)OC(=O)CCCCCCCCCCCCCCCCCCCCC (stereo not given in full) [PI(38:1)]
[1]; [M-H]-
  collision cross section (N2): 296.1 Å²

## CCCCCCCCCCCCCCCCC(=O)OC[C@@H](O)COP(=O)(O)O[C@H]1C(O)C(O)C(O)[C@@H](O)C1O (stereo not given in full) [LPI(17:0)]
[1]; [M-H]-
  collision cross section (N2): 232.6 Å²

## CCCCC/C=C\C/C=C\CCCCCCCCCC(=O)OC[C@@H](O)COP(=O)(O)OCCN [LPE(20:2)]
[1]; [M-H]-
  collision cross section (N2): 216.4 Å²

## CCCCCCCCCCCCCCCC(=O)OC[C@@H](O)COP(=O)(O)OC[C@H](N)C(=O)O [LPS(16:0)]
[1]; [M-H]-
  collision cross section (N2): 216.4 Å²

## CC/C=C\C/C=C\C/C=C\C/C=C\C/C=C\C/C=C\CCC(=O)OC[C@@H](COC(=O)CCCCCCC/C=C\C/C=C\C/C=C\CC)OC(=O)CCCCCCCC/C=C\C/C=C\C/C=C\CCCCC [TG(62:12)]
[1]; [M+NH4]+
  collision cross section (N2): 337.5 Å²

## CCCCC/C=C\C/C=C\C/C=C\CCCCCCC(=O)OC[C@@H](O)COP(=O)(O)OC[C@H](N)C(=O)O [LPS(20:3)]
[1]; [M-H]-
  collision cross section (N2): 221.5 Å²

## CCCCCCCCCCCCC=CC[C@@H](O)[C@H](CO)NC(=O)CC=CCCCCCCCCCCCCCCCC [Cer(38:2)]
[1]; [M+H]+
  collision cross section (N2): 262.4 Å²
[1]; [M+Na]+
  collision cross section (N2): 262.1 Å²

## CCCCC/C=C\C/C=C\C/C=C\C/C=C\CCCCCC(=O)O[C@H](COC(=O)CCCCCCCCCCCCCC)COP(=O)([O-])OCC[N+](C)(C)C [PC(37:4)]
[1]; [M+H]+
  collision cross section (N2): 290.4 Å²

## CCCCCCCCCCCCCCCC(=O)N[C@@H](COP(=O)([O-])OCC[N+](C)(C)C)[C@H](O)CCCCCCCCCCCCCCC [SM(34:0)]
[1]; [M+HCOO]-
  collision cross section (N2): 282.3 Å²
[1]; [M+H]+
  collision cross section (N2): 285 Å²
[1]; [M+Na]+
  collision cross section (N2): 284.8 Å²

## CCCCCCCCCCCCC=CC[C@@H](O)[C@H](CO)NC(=O)CC=CCCCCCCCCCCCCCCCCCC [Cer(40:2)]
[1]; [M+H]+
  collision cross section (N2): 270.3 Å²
[1]; [M+Na]+
  collision cross section (N2): 271.4 Å²
[1]; [M-H]-
  collision cross section (N2): 259.8 Å²

## CCCCCCCCCCCCCCCC/C=C\OC[C@H](COP(=O)([O-])OCC[N+](C)(C)C)OC(=O)CCCCCCCCCCCCCCC [PC(p34:0)]
[1]; [M+H]+
  collision cross section (N2): 288.3 Å²

## CCCCCCCCCCCCC=CC[C@@H](O)[C@H](COP(=O)([O-])OCC[N+](C)(C)C)NC(=O)CCCCCCCCCCCCCC [SM(33:1)]
[1]; [M+H]+
  collision cross section (N2): 279.2 Å²

## CCCCCCCCCCCCCC/C=C\OC[C@H](COP(=O)(O)OCCN)OC(=O)CCCCCCCCCCCCCCCCC [PE(p34:0)]
[1]; [M+H]+
  collision cross section (N2): 274.6 Å²

## CCCCCCCCCCCCCCCCCC(=O)N[C@@H](CO)[C@H](O)CCCCCCCCCCCCCCC [Cer(36:0)]
[1]; [M+HCOO]-
  collision cross section (N2): 259 Å²
[1]; [M+H]+
  collision cross section (N2): 262 Å²
[1]; [M+Na]+
  collision cross section (N2): 267.7 Å²
[1]; [M-H]-
  collision cross section (N2): 249 Å²

## CCCCC/C=C\C/C=C\C/C=C\C/C=C\CCCCCC(=O)O[C@H](CO/C=C\CCCCCCCCCCCCCCCC)COP(=O)([O-])OCC[N+](C)(C)C [PC(p40:4)]
[1]; [M+H]+
  collision cross section (N2): 300.9 Å²

## CCCCCCCC/C=C\CCCCCCCCCC(=O)O[C@@H](CO)COC(=O)CCCCCCC/C=C\CCCCCCCC [DG(38:2)]
[1]; [M+NH4]+
  collision cross section (N2): 271.6 Å²

## Nc1ncnc2c1ncn2[C@@H]1O[C@H](COP(=O)(O)OP(=O)(O)O[C@H]2O[C@H](CO)[C@@H](O)[C@H](O)[C@H]2O)[C@@H](O)[C@H]1O [ADP-glucose]
[2]; [M+H]+
  collision cross section (N2): 214.5 Å²

## Cn1c[n+]([C@@H]2O[C@H](CO)[C@@H](O)[C@H]2O)c2[nH]c(N)nc(=O)c21 [7-Methylguanosine]
[2]; [M]+
  collision cross section (N2): 166.5 Å²

## CCCCCCCC/C=C\CCCCCCCCCCCCCC(=O)O [Nervonic acid]
[2]; [M+H-H2O]+
  collision cross section (N2): 196.8 Å²
[2]; [M-H]-
  collision cross section (N2): 196.32 Å²

## CO[C@H]1[C@@H](O)[C@H](n2cnc3c(=O)nc(N)[nH]c32)O[C@@H]1CO [3'-O-methylguanosine]
[2]; [M+Na]+
  collision cross section (N2): 178.1 Å²
[2]; [M-H]-
  collision cross section (N2): 163.78 Å²

## NC(=O)NC(NC(N)=O)C(=O)O [Allantoic acid]
[2]; [M+Na]+
  collision cross section (N2): 143 Å²

## CC(=O)NC(CCC(N)=O)C(=O)O [alpha-N-Acetyl-L-glutamine]
[2]; [M+Na]+
  collision cross section (N2): 144.2 Å²
[2]; [M-H]-
  collision cross section (N2): 136.83 Å²

## N[C@@H](CCC(=O)N[C@@H](Cc1ccccc1)C(=O)O)C(=O)O [gamma-Glutamylphenylalanine]
[2]; [M+H]+
  collision cross section (N2): 168.2 Å²

## O=C(O)[C@@H](O)[C@@H](O)[C@H](O)[C@@H](O)C(=O)O [D-Glucarate]
[2]; [M-H]-
  collision cross section (N2): 130.5 Å² and 130.92 Å²

## C[C@H](CCC(=O)NCCS(=O)(=O)O)[C@H]1CC[C@H]2[C@@H]3[C@H](O)C[C@@H]4C[C@H](O)CC[C@]4(C)[C@H]3C[C@H](O)[C@]12C [Taurocholate]
[2]; [M+Na]+
  collision cross section (N2): 211.2 Å²
[2]; [M-H]-
  collision cross section (N2): 205.82 Å²
